This is an account of results in patent US8101647B2, “Spiro-oxindole compounds and their use as therapeutic agents” (Xenon Pharmaceuticals Inc., priority 2008, dated 2012).

In one series the test system is sodium channel. The experiment in a line: Guanidine influx assay. It is filed as cell-based, human or rat. As to conditions: known cell line that expresses a sodium channel; read-out: IC50 Activity Level. The source says: This example describes an in vitro assay for testing and profiling test agents against human or rat sodium channels stably expressed in cells of either an endogenous or recombinant origin. The assay is also useful for determining the IC50 of a sodium channel blocking compound. The assay is based on the guanidine flux assay described by Reddy, N. L., et al., J. Med. Chem. (1998), 41(17):3298-302.
The guanidine influx assay is a radiotracer flux assay used to determine ion flux activity of sodium channels in a high-throughput microplate-based format. The assay uses ^14C-guanidine hydrochloride in combination with various known sodium channel modulators, to assay the potency of test agents. Potency is determined by an IC50 calculation. Selectivity is determined by comparing potency of the compound for the channel of interest to its potency against other sodium channels (also called ‘selectivity profiling’).
Each of the test agents is assayed against cells that express the channels of interest. Voltage gated sodium channels are either TTX sensitive or insensitive. This property is useful when evaluating the activities of a channel of interest when it resides in a mixed population with other sodium channels. The following Table 1 summarizes cell lines useful in screening for a certain channel activity in the presence or absence of TTX.
It is also possible to employ recombinant cells expressing these sodium channels. Cloning and propagation of recombinant cells are known to those skilled in the art (see, for example, Klugbauer, N, et al., EMBO J. (1995), 14(6):1084-90; and Lossin, C., et al., Neuron (2002), 34, pp. 877-884).
Cells expressing the channel of interest are grown according to the supplier or in the case of a recombinant cell in the presence of selective growth media such as G418 (Gibco/Invitrogen). The cells are disassociated from the culture dishes with an enzymatic solution (1×) Trypsin/EDTA (Gibco/Invitrogen) and analyzed for density and viability using haemocytometer (Neubauer). Disassociated cells are washed and resuspended in their culture media then plated into Scintiplates (Beckman Coulter Inc.) (approximately 100,000 cells/well) and incubated at 37° C./5% CO2. for 20-24 hours. After an extensive wash with Low sodium HEPES-buffered saline solution (LNHBSS) (150 mM Choline Chloride, […] (Sigma), 1 mM Calcium Chloride, 5 mM Potassium Chloride, 1 mM Magnesium Chloride, 10 mM Glucose) agents diluted with LNHBSS are added to each well. (Varying concentrations of test agent may be used). The activation/radiolabel mixture contains aconitine (Sigma) to increase the percentage of time that the sodium channels are open, and ^14C-guanidine hydrochloride (ARC) to measure flux through the voltage-gated sodium channels.
After loading the cells with test agent and activation/radiolabel mixture, the Scintiplates are incubated at ambient temperature. Following the incubation, the Scintplates are extensively washed with LNHBSS supplemented with guanidine (Sigma). The Scintiplates are dried and then counted using a Wallac MicroBeta TriLux (Perkin-Elmer Life Sciences). The ability of the test agent to block sodium channel activity is determined by comparing the amount of ^14C-guanidine present inside the cells expressing the different sodium channels.
The IC50 value of a test agent for a specific sodium channel may be determined using the above general method. […] Typically the mid-point concentration of test agent is set at 1 μM, and sequential concentrations of half dilutions greater or smaller are applied (e.g. 0.5 μM; 5 μM and 0.25 μM; 10 μM and 0.125 μM; 20 μM etc.). The IC50 curve is calculated using the 4 Parameter Logistic Model or Sigmoidal Dose-Response Model formula (fit=(A+((B−A)/(1+((C/x)^D)))).
The fold selectivity, factor of selectivity or multiple of selectivity, is calculated by dividing the IC50 value of the test sodium channel by the reference sodium channel, for example, NaV1.5. […]

In a further series the target is T1, CYP3A4 (Homo sapiens, UniProt P08684).
T1 construct: purchased Invitrogen Corporation (Vivid CYP450 Screening Kit)
The experiment in a line: Cytochrome P450 (CYP450) inhibition assay, fluorescence-based. It is filed as in vitro ADME. To be noted: recombinant CYP3A4 (P450 Baculosomes), probe Vivid substrate (fluorogenic).

Structures are written as SMILES.

T1 sequence (P08684 whole entry): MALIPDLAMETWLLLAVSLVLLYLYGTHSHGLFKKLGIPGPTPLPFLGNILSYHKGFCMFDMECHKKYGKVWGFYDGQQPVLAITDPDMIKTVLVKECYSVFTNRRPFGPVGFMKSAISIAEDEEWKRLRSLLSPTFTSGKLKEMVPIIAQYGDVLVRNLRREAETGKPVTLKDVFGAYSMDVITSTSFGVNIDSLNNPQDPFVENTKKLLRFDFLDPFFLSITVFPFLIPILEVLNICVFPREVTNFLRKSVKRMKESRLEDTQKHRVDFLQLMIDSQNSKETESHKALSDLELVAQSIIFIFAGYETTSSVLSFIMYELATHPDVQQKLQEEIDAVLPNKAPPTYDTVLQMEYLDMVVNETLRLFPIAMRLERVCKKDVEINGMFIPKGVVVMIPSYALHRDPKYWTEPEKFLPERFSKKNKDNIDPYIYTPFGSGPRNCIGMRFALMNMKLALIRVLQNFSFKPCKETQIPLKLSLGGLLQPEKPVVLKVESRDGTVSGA

Compound `Cl.O=C1N(Cc2ccc(N[C@@H]3CCNC3)cc2)c2ccccc2C12COc1cc3c(cc12)OCO3` (stereo partly drawn) had a melting point of 190 to 195 °C.

In the case of `CN(C)CCOc1ccc2c(c1)OCC21C(=O)Nc2ccccc21` (stereo not drawn) [Example 2, 6-[2-(dimethylamino)ethoxy]spiro[1-benzofuran-3,3′-indol]-2′(1′H)-one], the melting point is 95 to 97 °C. The IC50 with sodium channel is at least 10 µM.

Take `CC(C)[Si](Oc1ccc2c(c1)OCC21C(=O)N(C[C@H]2CCCO2)c2ccccc21)(C(C)C)C(C)C` (stereo partly drawn) [Example 4, 1′-[(2R)-tetrahydrofuran-2-ylmethyl]-6-{[tris(1-methylethyl)silyl]oxy}spiro[1-benzofuran-3,3′-indol]-2′(1′H)-one]: the IC50 in the series on sodium channel was 0.1 to 1 µM.

Compound `CC(C)(C)OC(=O)N1CC[C@@H](Nc2ccc(CN3C(=O)C4(COc5cc6c(cc54)OCO6)c4ccccc43)cc2)C1` (stereo partly drawn) [Example 5, tert-butyl (3R)-3-({4-[(2′-oxospiro[furo[2,3-f][1,3]benzodioxole-7,3′-indol]-1′(2′H)-yl)methyl]phenyl}-amino)pyrrolidine-1-carboxylate] registered a melting point of 115 to 118 °C.

The compound `O=C1N(Cc2ccc(N[C@@H]3CCNC3)cc2)c2ccccc2C12COc1cc3c(cc12)OCO3` (stereo partly drawn) [Example 6, 1′-{4-[(3R)-pyrrolidin-3-ylamino]benzyl}spiro[furo[2,3-f][1,3]benzodioxole-7,3′-indol]-2′(1′H)-one] had a melting point of 118 to 121 °C.

For `CC(=O)N1CCC[C@H]1CN1C(=O)C2(COc3cc4c(cc32)CCO4)c2ccccc21` (stereo partly drawn) [Example 8, 1′-{[(2S)-1-acetylpyrrolidin-2-yl]methyl}-5,6-dihydrospiro[benzo[1,2-b:5,4-b′]difuran-3,3′-indol]-2′(1′H)-one], the melting point fell in the range of 103 to 108 °C. Also, in the series with sodium channel, the IC50 was in the range of 1 to 10 µM. At CYP3A4, the inhibition at 10 µM was over 50%.

With `N/C(CN1C(=O)C2(COc3cc4c(cc32)OCO4)c2c(Cl)cccc21)=N\OC(=O)C1CC1` (stereo not drawn) [Example 11, 2-(4′-chloro-2′-oxospiro[furo[2,3-f][1,3]benzodioxole-7,3′-indol]-1′(2′H)-yl)-N′-[(cyclopropylcarbonyl)oxy]ethanimidamide], in the series on sodium channel, the IC50 was 0.1 to 1 µM. In addition, the inhibition at 10 µM at CYP3A4 was over 50%.

For `NC(=O)COc1cccc(CN2C(=O)C3(COc4cc5c(cc43)CCO5)c3ccccc32)c1` (stereo not drawn) [Example 13, 2-{3-[(2-oxo-5,6-dihydrospiro[benzo[1,2-b:5,4-b]difuran-3,3-indol]-1(2H)-yl)methyl]phenoxy}acetamide], the melting point was in the range of 109 to 111 °C. Moreover, the IC50 in the series with sodium channel fell in the range of 0.001 to 0.1 µM. Also, the inhibition at 10 µM on CYP3A4 was over 50%.

Compound `NC(=O)COc1ccc(CN2C(=O)C3(COc4cc5c(cc43)CCO5)c3ccccc32)cc1` (stereo not drawn) [Example 13.1, 2-{4-[(2′-oxo-5,6-dihydrospiro[benzo[1,2-b:5,4-b′]difuran-3,3′-indol]-1′(2′H)-yl)methyl]phenoxy}acetamide] came in with a melting point of 215 to 216 °C. Also, the IC50 in the series on sodium channel was 0.001 to 0.1 µM. Moreover, the inhibition at 10 µM on CYP3A4 was under 50%.

Compound `COCCOc1ccc(CN2C(=O)C3(COc4cc5c(cc43)OCCO5)c3ccccc32)cc1` (stereo not drawn) [Example 13.3, 1′-[4-(2-methoxyethoxy)benzyl]-2,3-dihydrospiro[furo[2,3-g][1,4]benzodioxine-8,3′-indol]-2′(1′H)-one] gave a melting point of 124 to 125 °C. The IC50 with sodium channel fell in the range of 0.001 to 0.1 µM. The inhibition at 10 µM at CYP3A4 is over 50%.

Take `CCOC(=O)COc1ccc(CN2C(=O)C3(COc4cc5c(cc43)CCO5)c3ccccc32)cc1` (stereo not drawn) [Example 14.1, ethyl {4-[(2′-oxo-5,6-dihydrospiro[benzo[1,2-b:5,4-b′]difuran-3,3′-indol]-1′(2′H)-yl)methyl]phenoxy}acetate]: the melting point is 158 to 159 °C. Also, the IC50 in the series with sodium channel lay within 0.001 to 0.1 µM. The inhibition at 10 µM on CYP3A4 was under 50%.

On to `CCOC(=O)COc1ccc(CN2C(=O)C3(COc4cc5c(cc43)OCCO5)c3ccccc32)cc1` (stereo not drawn) [Example 14.2, ethyl {4-[(2′-oxo-2,3-dihydrospiro[furo[2,3-g][1,4]benzodioxine-8,3′-indol]-1′(2′H)-yl)methyl]phenoxy}acetate], for which the melting point is 59 to 61 °C. Further, the IC50 in the series on sodium channel is 0.001 to 0.1 µM. For the same compound, the inhibition at 10 µM at CYP3A4 is under 50%.

Consider `O=C(O)COc1cccc(CN2C(=O)C3(COc4cc5c(cc43)CCO5)c3ccccc32)c1` (stereo not drawn) [Example 15, {3-[(2′-oxo-5,6-dihydrospiro[benzo[1,2-b:5,4-b′]difuran-3,3′-indol]-1′(2′H)-yl)methyl]phenoxy}acetic acid], for which the melting point was 95 to 96 °C. In addition, the half-inhibitory concentration (IC50) with sodium channel was 1 to 10 µM. Besides, at CYP3A4, the inhibition at 10 µM was under 50%.

`O=C(O)COc1ccc(CN2C(=O)C3(COc4cc5c(cc43)CCO5)c3ccccc32)cc1` (stereo not drawn) [Example 15.1, {4-[(2′-oxo-5,6-dihydrospiro[benzo[1,2-b:5,4-b′]difuran-3,3′-indol]-1′(2′H)-yl)methyl]phenoxy}acetic acid]: the melting point lay in the range of 265 to 266 °C. Also, on CYP3A4, the inhibition at 10 µM is under 50%.

The compound `O=C(O)COc1ccc(CN2C(=O)C3(COc4cc5c(cc43)OCCO5)c3ccccc32)cc1` (stereo not drawn) [Example 15.2, {4-[(2′-oxo-2,3-dihydrospiro[furo[2,3-g][1,4]benzodioxine-8,3′-indol]-1′(2′H)-yl)methyl]phenoxy}acetic acid] had a melting point of 223 to 224 °C. Further, the inhibition at 10 µM on CYP3A4 is under 50%.

Take `CNC(=O)COc1cccc(CN2C(=O)C3(COc4cc5c(cc43)CCO5)c3ccccc32)c1` (stereo not drawn) [Example 16, N-methyl-2-{3-[(2′-oxo-5,6-dihydrospiro[benzo[1,2-b:5,4-b′]difuran-3,3′-indol]-1′(2′H)-yl)methyl]phenoxy}acetamide]: the melting point lay in the range of 175 to 176 °C. In addition, the IC50 in the series with sodium channel is 0.001 to 0.1 µM. Further, the inhibition at 10 µM on CYP3A4 was over 50%.

As for `C[S+]([O-])c1ccc(CN2C(=O)C3(COc4cc5c(cc43)CCO5)c3ccccc32)cc1` (stereo not drawn) [Example 17, 1′-[4-(methylsulfinyl)benzyl]-5,6-dihydrospiro[benzo[1,2-b:5,4-b′]difuran-3,3′-indol]-2′(1′H)-one], the 50% inhibitory concentration (IC50) in the series on sodium channel lay within 0.1 to 1 µM. The inhibition at 10 µM on CYP3A4 is over 50%.

In the case of `CS(=O)(=O)N(c1ccc2c(c1)OCC21C(=O)N(C[C@H]2CCCO2)c2ccccc21)S(C)(=O)=O` (stereo partly drawn) [Example 18, N-(methylsulfonyl)-N-{2′-oxo-1′-[(2R)-tetrahydrofuran-2-ylmethyl]-1′,2′-dihydrospiro[1-benzofuran-3,3′-indol]-6-yl}methanesulfonamide], the IC50 in the series on sodium channel lay in the range of 1 to 10 µM. In addition, the inhibition at 10 µM at CYP3A4 was under 50%.

`CC(N)COc1ccc2c(c1)OCC21C(=O)N(C[C@H]2CCCO2)c2ccccc21.Cl` (stereo partly drawn) [Example 20, 6-(2-aminopropoxy)-1′-[(2R)-tetrahydrofuran-2-ylmethyl]spiro[1-benzofuran-3,3′-indol]-2′(1′H)-one hydrochloride] yielded a melting point of 120 to 130 °C. In addition, the IC50 in the series with sodium channel lay within 1 to 10 µM. The inhibition at 10 µM at CYP3A4 is under 50%.

Consider `CN(C)CCOc1ccc2c(c1)OCC21C(=O)N(C[C@H]2CCCO2)c2ccccc21` (stereo partly drawn) [Example 21, 6-[2-(dimethylamino)ethoxy]-1′-[(2R)-tetrahydrofuran-2-ylmethyl]spiro[1-benzofuran-3,3′-indol]-2′(1′H)-one], for which, in the series with sodium channel, the IC50 was 1 to 10 µM. For the same compound, the inhibition at 10 µM on CYP3A4 is under 50%.

Broadly, the melting point is the temperature of the solid-liquid transition. As usually defined, the IC50 is the concentration at which inhibition is half-maximal. By inhibition is commonly meant the drop in the measured response relative to a control, in per cent.
